Measured values: paper PMC9530166, “Allosteric regulation of glycogen breakdown by the second messenger cyclic di-GMP” (Nature Communications, 2022)
Entries after “also recorded” stand apart in the source; their conditions may differ.

Experiments:
BldD = target: BldD; design: method as in PMID 25171413, PMID 31810759; settings: cited from earlier work
His6-GlgXDETR(49-52) [1] = assay: DRaCALA with [32P]-c-di-GMP, RETD49-52 swap mutant; type: binding, Streptomyces venezuelae; settings: His6-GlgXDETR(49-52) mutant
Procedure: (§1) For DRaCALA assays, purified His6-GlgX (15 μg) was mixed with 0.5 μl undiluted [^32P]-c-di-GMP (42 nM) (Hartmann Analytic GmbH, Braunschweig) in binding buffer (25 mM Tris pH 8; 150 mM NaCl; 2.5% (v/v) glycerol; 5 mM MgCl2) and the reaction was incubated at rt for 5 min. For competition assays, 100 μM nonlabeled nucleotides were added to the samples and incubated at rt for 5 min prior to the addition of [^32P]-c-di-GMP. Reactions (10 μl) were spotted on the same nitrocellulose membrane (Roth), air dried for 10 min and analyzed via phosphorimaging.
(§2) 217 Supplementary Fig. 5: NanoDSF assays with mutagenized His6-GlgX variants. (a) Swap of the
(§3) 219 This was confirmed by DRaCALA, right. For DRaCALA assays, 15 µg of purified E. coli His6-GlgX
(§4) 220 or His6-Vnz25270, respectively, were mixed with 0.5 µl of [32P]-c-di-GMP (Hartmann Analytic
(§5) 221 GmbH, Braunschweig) in binding buffer (25 mM Tris pH 8.0, 150 mM NaCl, 2.5% (v/v) glycerol
222 and 5 mM MgCl2). 10 µl of the reactions were spotted on the same nitrocellulose membrane (Roth),
223 air dried for 10 min and analyzed by phosphorimaging. (b) Changing the RLVD motif (amino acids
(§6) (1 picture or pasted object on this page, not shown here)

His6-GlgXDETR(49-52) [2] = assay: nanoDSF thermal shift assay, RETD49-52 swap mutant; type: binding, Streptomyces venezuelae; settings: His6-GlgXDETR(49-52) mutant
Procedure: Arginine and aspartic acid arranged in an RxxD motif are often found as c-di-GMP binding signatures in effector proteins[28],[34]. […] To determine if either of these motifs are involved in c-di-GMP binding, we swapped the arginine and aspartic acid residues in the two motifs and purified His6-GlgXDETR(49-52) and His6-GlgXDLVR(212-215).
For label-free thermal shift assay experiments, 10 μM purified protein in 25 mM Tris pH 8, 150 mM NaCl, 2.5% (v/v) glycerol, and 5 mM MgCl2 was incubated without or with (1 mM) of nonlabeled c-di-GMP or c-di-AMP, respectively, at rt for 10 min. Reactions were subsequently analyzed in a Tycho NT.6 (NanoTemper Technologies) device with a 30 K/min thermal ramp and the internal fluorescence at 330 and 350 nm was recorded. Data analysis and calculation of derivatives was done using the internal evaluation features of the Tycho instrument.
as §2, §3, §4, §5
222 and 5 mM MgCl2). […]
223 air dried for 10 min and analyzed by phosphorimaging. […]

GlgXR438A-R579A = assay: Fluorescence polarization binding, GlgXR438A-R579A; design: species or system Streptomyces venezuelae
Description: Fig. 5 Structure of the S. venezuelae GlgX-c-di-GMP complex. a Ribbon diagram of the S. venezuelae GlgX-c-di-GMP complex with one GlgX subunit colored cyan and the other salmon. Shown as sticks are the c-di-GMP molecules bound at each end of the antiparallel dimer. […] There was clear density for each c-di-GMP molecule. b Close up of the GlgX-c-di-GMP binding interaction. Key residues mediating contacts to the c-di-GMP are shown as sticks and labeled. Hydrogen bonds from GlgX residues that specify binding to the guanine are indicated by yellow dashed lines. c Fluorescence polarization (FP) binding isotherm showing interaction of GlgX, GlgXE47A-R49A and GlgXR438A-R579A for F-c-di-GMP in red, green and blue respectively. Also shown is the binding isotherm for GlgX binding to F-c-di-AMP in black. […] The y-axis and x-axis are millipolarization (mP) units and GlgX concentration (μM), respectively. Shown are representative binding curves for each. The experiments were performed in technical triplicates and the error between measurements reported. […]
Thus, we used this F-tagged c-di-GMP in fluorescence polarization (FP) studies to quantify the interaction between GlgX and c-di-GMP. […] To ensure that the presence of the fluorescent tag was not impacting the GlgX interaction with c-di-GMP we used microscale thermophoresis (MST) to quantify c-di-GMP binding to GlgX. […]

GlgX = GlgX (Streptomyces venezuelae, UniProt F2RAW5); assay: Fluorescence polarization (FP) binding, wild-type GlgX; settings: summary value of FP (Fig. 5c) and MST (Supplementary Fig. 8); read-out: affinity of GlgX for c-di-GMP
Description: Fig. 5 Structure of the S. venezuelae GlgX-c-di-GMP complex. a Ribbon diagram of the S. venezuelae GlgX-c-di-GMP complex with one GlgX subunit colored cyan and the other salmon. Shown as sticks are the c-di-GMP molecules bound at each end of the antiparallel dimer. […] There was clear density for each c-di-GMP molecule. b Close up of the GlgX-c-di-GMP binding interaction. Key residues mediating contacts to the c-di-GMP are shown as sticks and labeled. Hydrogen bonds from GlgX residues that specify binding to the guanine are indicated by yellow dashed lines. c Fluorescence polarization (FP) binding isotherm showing interaction of GlgX, GlgXE47A-R49A and GlgXR438A-R579A for F-c-di-GMP in red, green and blue respectively. Also shown is the binding isotherm for GlgX binding to F-c-di-AMP in black. […] The y-axis and x-axis are millipolarization (mP) units and GlgX concentration (μM), respectively. Shown are representative binding curves for each. The experiments were performed in technical triplicates and the error between measurements reported. Error bars represent SD of the measurements. Source data are provided in the Source data file.
Thus, we used this F-tagged c-di-GMP in fluorescence polarization (FP) studies to quantify the interaction between GlgX and c-di-GMP. […] To ensure that the presence of the fluorescent tag was not impacting the GlgX interaction with c-di-GMP we used microscale thermophoresis (MST) to quantify c-di-GMP binding to GlgX. […] But to further probe the structural model we created GlgXE47A-R49A and GlgXR438A-R579A mutants and performed FP studies with these proteins.
To measure c-di-GMP binding to GlgX and GlgX mutants, 2′-O-(6-[Fluoresceinyl]aminohexylcarbamoyl)-cyclic diguanosine monophosphate (2′-Fluo-AHC-c-di-GMP) (BioLog), was used as a fluoresceinated reporter ligand. This molecule is conjugated via a nine atom spacer to one of the c-di-GMP 2′ hydroxyl groups. […] 2′-O-(6-[Fluoresceinyl]aminohexylcarbamoyl)-cyclic diadenosine monophosphate (2′-Fluo-AHC-c-di-AMP) (BioLog) was also used in binding studies to assess specificity of GlgX for c-di-GMP. […]

His6-GlgXEC = target: T1, His6-GlgXEC (Escherichia coli, UniProt P15067); assay: DRaCALA with [32P]-c-di-GMP, E. coli GlgX; type: binding; settings: 15 µg E. coli His6-GlgX
T1 construct: made in house; host or cells: E. coli Rosetta (DE3), pET15b
Procedure: as §1
(a) 15 µg of purified E. coli His6-GlgX
167 or His6-Vnz25270, respectively, were mixed with 0.5 µl of [32P]-c-di-GMP (Hartmann Analytic
168 GmbH, Braunschweig) in binding buffer (25 mM Tris pH 8.0, 150 mM NaCl, 2.5% (v/v) glycerol
169 and 5 mM MgCl2). 10 µL of the reactions were spotted on the same nitrocellulose membrane (Roth),
170 air dried for 10 min and analyzed by phosphorimaging. (b, c) 10 µM purified His6-Vnz25270 (b) or
171 His6-GlgXE.coli (c) in 25 mM Tris pH 8.0, 150 mM NaCl, 2.5% (v/v) glycerol and 5 mM MgCl2 were
172 incubated without or with (1 mM) c-di-GMP. Reactions were analyzed in a Tycho NT.6
173 (NanoTemper Technologies) device.
as §6

Chain of GlgX (F2RAW5 entry or part of it): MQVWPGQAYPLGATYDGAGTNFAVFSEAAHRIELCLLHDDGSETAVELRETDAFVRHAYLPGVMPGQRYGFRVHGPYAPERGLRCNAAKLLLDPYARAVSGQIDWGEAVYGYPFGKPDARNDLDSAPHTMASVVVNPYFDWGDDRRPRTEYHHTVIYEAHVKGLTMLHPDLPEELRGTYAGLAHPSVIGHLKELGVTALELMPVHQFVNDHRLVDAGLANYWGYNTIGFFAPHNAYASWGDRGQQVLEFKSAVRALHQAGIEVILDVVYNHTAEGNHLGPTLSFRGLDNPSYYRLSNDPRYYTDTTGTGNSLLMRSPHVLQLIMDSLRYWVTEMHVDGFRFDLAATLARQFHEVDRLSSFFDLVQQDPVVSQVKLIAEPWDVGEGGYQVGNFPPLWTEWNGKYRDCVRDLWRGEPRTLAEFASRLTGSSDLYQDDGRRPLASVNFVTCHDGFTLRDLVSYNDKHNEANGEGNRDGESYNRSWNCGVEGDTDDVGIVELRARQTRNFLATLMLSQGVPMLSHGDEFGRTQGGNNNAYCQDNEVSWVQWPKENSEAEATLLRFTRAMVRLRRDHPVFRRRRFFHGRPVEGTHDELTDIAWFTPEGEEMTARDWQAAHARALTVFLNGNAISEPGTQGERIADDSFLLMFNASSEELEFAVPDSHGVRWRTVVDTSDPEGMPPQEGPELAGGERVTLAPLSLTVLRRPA
T1 sequence (P15067 whole entry): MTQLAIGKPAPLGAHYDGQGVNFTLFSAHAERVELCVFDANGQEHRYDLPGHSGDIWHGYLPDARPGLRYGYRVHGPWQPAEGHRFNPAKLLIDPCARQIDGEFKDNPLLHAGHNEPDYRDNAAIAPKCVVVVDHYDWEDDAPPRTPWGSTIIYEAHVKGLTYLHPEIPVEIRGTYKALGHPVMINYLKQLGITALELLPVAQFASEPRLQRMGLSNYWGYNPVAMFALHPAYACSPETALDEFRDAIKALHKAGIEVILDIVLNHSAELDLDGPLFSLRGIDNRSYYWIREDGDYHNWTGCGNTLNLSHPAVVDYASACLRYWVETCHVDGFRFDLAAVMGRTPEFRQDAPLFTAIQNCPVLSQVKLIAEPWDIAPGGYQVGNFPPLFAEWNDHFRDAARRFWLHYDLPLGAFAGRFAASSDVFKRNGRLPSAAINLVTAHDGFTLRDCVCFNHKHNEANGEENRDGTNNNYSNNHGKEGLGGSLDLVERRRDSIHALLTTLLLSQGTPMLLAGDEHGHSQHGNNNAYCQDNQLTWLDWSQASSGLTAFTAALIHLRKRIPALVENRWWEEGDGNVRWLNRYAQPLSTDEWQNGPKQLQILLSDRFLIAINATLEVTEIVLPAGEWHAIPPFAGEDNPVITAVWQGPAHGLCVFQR

Compound: Nc1nc2c(ncn2[C@@H]2O[C@@H]3CO[P@](=O)(O)O[C@H]4[C@@H](O)[C@H](n5cnc6c(=O)[nH]c(N)nc65)O[C@@H]4CO[P@](=O)(O)O[C@H]3[C@H]2O)c(=O)[nH]1 [c-di-GMP, bis-(3′−5′)-cyclic diguanosine monophosphate]
- Kd (BldD): 2.5 ± 0.6 µM
- binding of c-di-GMP in DRaCALA (His6-GlgXDETR(49-52) [1]): does not bind c-di-GMP
- effect of c-di-GMP in nanoDSF (His6-GlgXDETR(49-52) [2]): abolishes c-di-GMP binding; also recorded: no effect
- binding to mutant in FP (GlgXR438A-R579A): weak, nonsaturable binding
- Kd (GlgX): ~8 µM
- binding of [32P]-c-di-GMP in DRaCALA (His6-GlgXEC): did not detect any interactions
